Results published in patent publication US12077503B2, “Substituted cyclic amides and their use as herbicides” (FMC CORPORATION, priority 2015, dated 2024).

Legend:
Type in all cases: in vivo
[1] = tested on: ryegrass, Italian (Italian ryegrass, Lolium multiflorum); experiment: Test A preemergence; conditions: Lolium multiflorum, pre-emergence, 240 h, preemergence, 0 to 100 scale where 0 is no effect and 100 is complete control, read-out: Ryegrass, Italian plant response rating
In short: (§1)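 Compounds were formulated in a non-phytotoxic solvent mixture with surfactant and applied as a preemergence directed soil spray after seeding, or sprayed postemergence over plants 2 to 10 cm tall at the one- to two-leaf stage. Evaluation after about 10 d compared treated with untreated controls, using a scale from 0 (no effect) to 100 (complete control).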

[2] = tested on: pigweed (Amaranthus retroflexus); experiment: Test A preemergence; conditions: Amaranthus retroflexus, pre-emergence, 240 h, preemergence, 0 to 100 scale where 0 is no effect and 100 is complete control, read-out: Pigweed plant response rating
[3] = tested on: giant foxtail (Setaria faberii); experiment: Test A preemergence; conditions: Setaria faberi, pre-emergence, 240 h, preemergence, 0 to 100 scale where 0 is no effect and 100 is complete control, read-out: Foxtail, Giant plant response rating
In short: as §1

[4] = tested on: barnyardgrass (Echinochloa crus-galli); experiment: Test A preemergence; conditions: Echinochloa crus-galli, pre-emergence, 240 h, preemergence, read-out: Barnyardgrass plant response rating
In short: as §1

Kochia (Kochia scoparia) [5] = experiment: Test A preemergence; conditions: Bassia scoparia, pre-emergence, 240 h, preemergence, 0 to 100 scale where 0 is no effect and 100 is complete control, read-out: Kochia plant response rating
In short: as §1

[6] = tested on: ragweed (common ragweed, Ambrosia elatior); experiment: Test A preemergence; conditions: Ambrosia artemisiifolia, pre-emergence, 240 h, preemergence, 0 to 100 scale where 0 is no effect and 100 is complete control, read-out: Ragweed plant response rating
In short: as §1

[7] = tested on: ryegrass, Italian (Italian ryegrass, Lolium multiflorum); experiment: Test A postemergence; conditions: Lolium multiflorum, post-emergence, 240 h, postemergence, read-out: Ryegrass, Italian plant response rating
In short: as §1

corn (Zea mays) = experiment: Test A postemergence; conditions: Zea mays, post-emergence, 240 h, postemergence, read-out: Corn plant response rating
In short: as §1

[8] = tested on: blackgrass (Alopecurus myosuroides); experiment: Test A postemergence; conditions: Alopecurus myosuroides, post-emergence, 240 h, postemergence, read-out: Blackgrass plant response rating
In short: as §1

[9] = tested on: giant foxtail (Setaria faberii); experiment: Test A postemergence; conditions: Setaria faberi, post-emergence, 240 h, postemergence, read-out: Foxtail, Giant plant response rating
In short: as §1

[10] = tested on: wheat (Triticum aestivum); experiment: Test A postemergence; conditions: Triticum aestivum, post-emergence, 240 h, postemergence, read-out: Wheat plant response rating
In short: as §1

[11] = tested on: barnyardgrass (Echinochloa crus-galli); experiment: Test A postemergence; conditions: Echinochloa crus-galli, post-emergence, 240 h, postemergence, read-out: Barnyardgrass plant response rating
In short: as §1

Kochia (Kochia scoparia) [12] = experiment: Test A postemergence; conditions: Bassia scoparia, post-emergence, 240 h, postemergence, read-out: Kochia plant response rating
In short: as §1

[13] = tested on: Galium (catchweed bedstraw, Galium aparine); experiment: Test A postemergence; conditions: Galium, post-emergence, 240 h, postemergence, read-out: Galium plant response rating
In short: as §1

[14] = tested on: ragweed (common ragweed, Ambrosia elatior); experiment: Test A postemergence; conditions: Ambrosia artemisiifolia, post-emergence, 240 h, postemergence, read-out: Ragweed plant response rating
In short: as §1

[15] = 125 g ai/ha, visual injury on 0 to 100 scale (0 no effect, 100 complete control), approx. 10 d
[16] = 500 g ai/ha, 0 to 100 scale, 0 is no effect, 100 is complete control

CN1C[C@H](c2cscn2)[C@@H](C(=O)Nc2ccccc2F)C1=O [Compound 1112]
0%: pest or weed control at 125 g/ha ([1]; 125 g ai/ha, approx. 10 d) | pest or weed control at 500 g/ha ([1]; 500 g ai/ha) | pest or weed control at 125 g/ha ([2]; 125 g ai/ha, approx. 10 d) | pest or weed control at 500 g/ha ([2]; 500 g ai/ha) | pest or weed control at 125 g/ha ([3]; 125 g ai/ha, approx. 10 d) | pest or weed control at 500 g/ha ([3]; 500 g ai/ha) | pest or weed control at 125 g/ha ([4]; 125 g ai/ha, 0 to 100 scale where 0 is no effect and 100 is complete control, approx. 10 d) | pest or weed control at 500 g/ha ([4]; 500 g ai/ha, visual injury rating about 10 d after treatment, 0 to 100 scale (0 no effect, 100 complete control)) | pest or weed control at 125 g/ha (Kochia (Kochia scoparia) [5]; 125 g ai/ha, approx. 10 d) | pest or weed control at 500 g/ha (Kochia (Kochia scoparia) [5]; 500 g ai/ha) | pest or weed control at 125 g/ha ([6]; 125 g ai/ha, approx. 10 d) | pest or weed control at 500 g/ha ([6]; 500 g ai/ha) | pest or weed control at 125 g/ha [7, 15] | pest or weed control at 500 g/ha [7, 16] | plant injury at 125 g/ha (corn (Zea mays); [15]) | plant injury at 500 g/ha (corn (Zea mays); [16]) | pest or weed control at 125 g/ha [8, 15] | pest or weed control at 500 g/ha [8, 16] | pest or weed control at 125 g/ha [9, 15] | pest or weed control at 500 g/ha [9, 16] | plant injury at 125 g/ha [10, 15] | plant injury at 500 g/ha [10, 16] | pest or weed control at 125 g/ha [11, 15] | pest or weed control at 500 g/ha [11, 16] | pest or weed control at 125 g/ha (Kochia (Kochia scoparia) [12]; [15]) | pest or weed control at 500 g/ha (Kochia (Kochia scoparia) [12]; [16]) | pest or weed control at 125 g/ha [13, 15] | pest or weed control at 500 g/ha [13, 16] | pest or weed control at 125 g/ha [14, 15] | pest or weed control at 500 g/ha [14, 16]
